Reference: article PMC6333442, “Conserved allosteric pathways for activation of TRPV3 revealed through engineering vanilloid-sensitivity” (eLife, 2019)
Where a chain is given by its changes, count along the chain named. Where “and” joins values, the source holds several entries; their conditions need not be identical. Identical values can stand only once.

Tests used:
TRPV3-6M/4PM = molecular target: T1, TRPV3-6M/4PM (Mus musculus, UniProt Q8K424, A560T/F522S/F625L/F656I/F666Y/H523E/L557M/Q580E/V587L/W521Y); assay: Two-electrode voltage clamp, TRPV3-6M/4PM in oocytes; assay type: cell-based; details: RTx 100 nM, 2-APB 3 mM, +60 mV
T1 construct: expressed in transfected cells; host or cells: Xenopus laevis oocytes
T1 sequence (Q8K424 1-791 W521Y/F522S/H523E/L557M/A560T/Q580E/V587L/F625L/F656I/F666Y): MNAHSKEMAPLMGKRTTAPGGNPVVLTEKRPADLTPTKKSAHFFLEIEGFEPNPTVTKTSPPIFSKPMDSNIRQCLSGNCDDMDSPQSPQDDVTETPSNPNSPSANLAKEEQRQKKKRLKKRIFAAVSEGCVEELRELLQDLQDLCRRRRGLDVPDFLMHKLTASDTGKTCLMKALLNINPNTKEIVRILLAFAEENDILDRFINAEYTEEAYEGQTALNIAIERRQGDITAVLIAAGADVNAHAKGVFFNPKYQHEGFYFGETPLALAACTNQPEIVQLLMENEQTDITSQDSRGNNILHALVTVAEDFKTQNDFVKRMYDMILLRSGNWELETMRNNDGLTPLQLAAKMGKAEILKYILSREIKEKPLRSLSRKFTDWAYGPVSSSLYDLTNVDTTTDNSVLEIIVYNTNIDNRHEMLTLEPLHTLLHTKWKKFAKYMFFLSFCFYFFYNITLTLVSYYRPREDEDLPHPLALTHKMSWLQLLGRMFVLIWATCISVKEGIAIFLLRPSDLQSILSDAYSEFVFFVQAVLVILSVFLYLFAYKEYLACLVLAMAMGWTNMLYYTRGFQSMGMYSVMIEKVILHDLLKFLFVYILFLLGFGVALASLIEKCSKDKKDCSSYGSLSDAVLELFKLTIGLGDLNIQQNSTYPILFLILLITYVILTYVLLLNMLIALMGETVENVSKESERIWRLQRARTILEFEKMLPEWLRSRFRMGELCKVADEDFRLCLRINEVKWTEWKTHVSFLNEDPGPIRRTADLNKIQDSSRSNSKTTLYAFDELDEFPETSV
Description: All channel constructs were expressed in Xenopus laevis oocytes and studied using the two-electrode voltage clamp technique (TEVC) following 1–4 days of incubation after cRNA injection. The animal care and experimental procedures were performed in accordance with the Guide for the Care and Use of Laboratory Animals and were approved by the Animal Care and Use Committee of the National Institute of Neurological Disorders and Stroke (Animal protocol number 1253–17). Oocytes were removed surgically and incubated with agitation for 1 hr in a solution containing (in mM) 82.5 NaCl, 2.5 KCl, 1 MgCl2, 5 HEPES, pH 7.6 (with NaOH), and collagenase (2 mg/ml; Worthington Biochemical, Lakewood, NJ). Defolliculated oocytes were injected with cRNA for each of the constructs and incubated at 17°C in a solution containing (in mM) 96 NaCl, 2 KCl, 1 MgCl2, 1.8 CaCl2, 5 HEPES, pH 7.6 (with NaOH), and gentamicin (50 μg/ml, GIBCO-BRL, Gaithersburg, MD). Oocyte membrane voltage was controlled using an OC-725C oocyte clamp (Warner Instruments, Hamden, CT). Data were filtered at 1–3 kHz and digitized at 20 kHz using pClamp software (Molecular Devices, Sunnyvale, CA) and a Digidata 1440A digitizer (Axon Instruments). Microelectrode resistances were 0.1–1 MΩ when filled with 3 M KCl. For recording TRP channel currents, the external recording solution contained (in mM) 100 KCl, 10 HEPES, pH 7.6 (with KOH). […]

TRPV3-6M + 5PM = molecular target: T2, TRPV3-6M + 5PM (Mus musculus, UniProt Q8K424, A560T/A606V/F522S/F625L/F656I/F666Y/H523E/L557M/Q580E/V587L/W521Y); assay: Two-electrode voltage clamp, TRPV3-6M + 5PM in oocytes; assay type: cell-based
T2 construct: expressed in transfected cells; host or cells: Xenopus laevis oocytes
T2 sequence (Q8K424 1-791 W521Y/F522S/H523E/L557M/A560T/Q580E/V587L/A606V/F625L/F656I/F666Y): T1 sequence (Q8K424 1-791 W521Y/F522S/H523E/L557M/A560T/Q580E/V587L/F625L/F656I/F666Y) with A606V
Description: (§1) All channel constructs were expressed in Xenopus laevis oocytes and studied using the two-electrode voltage clamp technique (TEVC) following 1–4 days of incubation after cRNA injection. The animal care and experimental procedures were performed in accordance with the Guide for the Care and Use of Laboratory Animals and were approved by the Animal Care and Use Committee of the National Institute of Neurological Disorders and Stroke (Animal protocol number 1253–17). Oocytes were removed surgically and incubated with agitation for 1 hr in a solution containing (in mM) 82.5 NaCl, 2.5 KCl, 1 MgCl2, 5 HEPES, pH 7.6 (with NaOH), and collagenase (2 mg/ml; Worthington Biochemical, Lakewood, NJ). Defolliculated oocytes were injected with cRNA for each of the constructs and incubated at 17°C in a solution containing (in mM) 96 NaCl, 2 KCl, 1 MgCl2, 1.8 CaCl2, 5 HEPES, pH 7.6 (with NaOH), and gentamicin (50 μg/ml, GIBCO-BRL, Gaithersburg, MD). Oocyte membrane voltage was controlled using an OC-725C oocyte clamp (Warner Instruments, Hamden, CT). Data were filtered at 1–3 kHz and digitized at 20 kHz using pClamp software (Molecular Devices, Sunnyvale, CA) and a Digidata 1440A digitizer (Axon Instruments). Microelectrode resistances were 0.1–1 MΩ when filled with 3 M KCl. For recording TRP channel currents, the external recording solution contained (in mM) 100 KCl, 10 HEPES, pH 7.6 (with KOH). Experiments were performed at room temperature (~22°C), except as indicated otherwise. […] Current time courses were obtained by stepping membrane voltage every 2 s from a holding potential of 0 mV to either −60 or +60 mV for 100 ms, and plotting the mean steady-state current at the end of each voltage step as a function of total recording time. I-V relations were obtained similarly, but voltage was stepped every 2 s to a different value, in 10 mV increments and starting at −60 mV.

TRPV3-V587L = TRPV3-V587L (Mus musculus, UniProt Q8K424, V587L); details: -60 mV
Description: as §1

TRPV3-A606V = TRPV3-A606V (Mus musculus, UniProt Q8K424, A606V)
Description: as §1

TRPV3-4PM = TRPV3-4PM (Mus musculus, UniProt Q8K424, F625L/F656I/F666Y/V587L)
Description: as §1

Sequence of TRPV3-4PM (Q8K424 whole entry V587L/F625L/F656I/F666Y): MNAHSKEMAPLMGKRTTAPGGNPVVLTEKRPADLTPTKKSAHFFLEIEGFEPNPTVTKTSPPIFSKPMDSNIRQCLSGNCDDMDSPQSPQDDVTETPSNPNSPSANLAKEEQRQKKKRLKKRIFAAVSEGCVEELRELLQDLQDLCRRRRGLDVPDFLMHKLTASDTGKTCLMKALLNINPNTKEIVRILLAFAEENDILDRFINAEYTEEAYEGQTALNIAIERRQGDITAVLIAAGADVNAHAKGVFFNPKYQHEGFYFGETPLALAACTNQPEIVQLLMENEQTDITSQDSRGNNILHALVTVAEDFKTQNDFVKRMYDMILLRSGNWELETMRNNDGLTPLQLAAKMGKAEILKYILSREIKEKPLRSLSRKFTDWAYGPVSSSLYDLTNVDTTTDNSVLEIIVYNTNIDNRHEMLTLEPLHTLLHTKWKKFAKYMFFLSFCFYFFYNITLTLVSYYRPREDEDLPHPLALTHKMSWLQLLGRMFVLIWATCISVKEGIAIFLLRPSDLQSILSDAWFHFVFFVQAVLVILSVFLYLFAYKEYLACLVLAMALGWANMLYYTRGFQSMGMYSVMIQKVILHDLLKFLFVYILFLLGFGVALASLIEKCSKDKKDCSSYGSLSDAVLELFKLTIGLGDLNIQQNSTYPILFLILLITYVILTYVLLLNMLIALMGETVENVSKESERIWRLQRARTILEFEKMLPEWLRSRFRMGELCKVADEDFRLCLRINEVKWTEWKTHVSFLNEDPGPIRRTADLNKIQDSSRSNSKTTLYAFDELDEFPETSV
Sequence of TRPV3-A606V (Q8K424 whole entry A606V): as the sequence (Q8K424 whole entry V587L/F625L/F656I/F666Y) above, with L587V, A606V, L625F, I656F, Y666F counted along it
Sequence of TRPV3-V587L (Q8K424 whole entry V587L): as the sequence (Q8K424 whole entry V587L/F625L/F656I/F666Y) above, with L625F, I656F, Y666F counted along it

Structure (SMILES)	response to RTx compared with maximal response to 2-APB (TRPV3-6M/4PM)	dissociation of RTx (TRPV3-6M + 5PM)	response to RTx compared with maximal response to 2-APB (TRPV3-6M + 5PM; RTx 100 nM, 2-APB 3 mM, +60 mV)	s (slope) of Hill fit, 2-APB concentration-response (TRPV3-V587L)	EC50 (TRPV3-V587L; read-out: apparent affinity (EC50) for activation by 2-APB, room temperature, Hill fit) [µM]	s (slope) of Hill fit, 2-APB concentration-response (TRPV3-A606V; -60 mV)	EC50 (TRPV3-A606V; read-out: apparent affinity (EC50) for activation by 2-APB, -60 mV, room temperature, Hill fit) [µM]	increase in the apparent affinity for 2-APB (TRPV3-A606V; relative to WT TRPV3)	s (slope) of Hill fit, 2-APB concentration-response (TRPV3-4PM; -60 mV)	shift in the apparent affinity for 2-APB (TRPV3-4PM; relative to WT TRPV3)
C=C(C)[C@]12C[C@@H](C)[C@@]34O[C@](Cc5ccccc5)(O[C@@H]1[C@@H]3C=C(COC(=O)Cc1ccc(O)c(OC)c1)C[C@]1(O)C(=O)C(C)=C[C@@H]41)O2 [RTx, resiniferatoxin]	similar	exceedingly slow	similar							
NCCOB(c1ccccc1)c1ccccc1 [2-APB, 2-aminoethoxydiphenyl borate]				2.28	443 ± 13	2.72	132 ± 7	~ 3.5 fold and 3.5 fold	1.84	~ 2 fold and 2 fold
